According to patent publication US9364471B2, “Compositions and methods of treating retinal disease” (ALDEYRA THERAPEUTICS, INC., priority 2005, dated 2016):

How the values were obtained:
[1] = tested on: light sensitivity of dark adapted rats; assay: ERG analysis of dark adaptation, dose ranging protocol; type: in vivo, rat; settings: i.p.
Protocol: Dark adaptation is the recovery of visual sensitivity following exposure to light. Dark adaptation has multiple components including both fast (neuronal) processes and slow (photochemical) process. Regeneration of visual pigment is related to the slow photochemical process. Dark adaptation rates are measured for several reasons. Night blindness results from a failure to dark adapt (loss of visual light sensitivity). It is possible to find a safe dose for night vision by measuring drug effects on dark adapted visual light sensitivity.
An electroretinogram (ERG) is used measure dark adaptation under normal vs. drug conditions. ERG is the measurement of the electric field potential emitted by retinal neurons during their response to an experimentally defined light stimulus. More specifically, ERG measures retinal field potentials at the cornea after a flash of light (e.g., 50 ms). Field strengths are 10^2 to 10^3 microvolts, originating in retinal cells.
ERG is a non-invasive measurement which can be performed on either living subjects (human or animal) or a hemisected eye in solution that has been removed surgically from a living animal. […]
The ERG measurement is taken after a specific duration of post-bleach dark recovery (e.g., 30 min) determined previously by kinetic analysis (see FIGS. 6a and 6b). […]

[2] = NMR analysis of RAL reactions (Schiff base condensation and ring formation); type: physicochemical; settings: Schiff base condensation with RAL, pure chloroform

Row | Compound | effect on ERG light sensitivity of dark adapted rats ([1]; dose ranging, FIG. 7) | duration of the effect on vision ([1]; rat ERG) | tau (minutes) condense [2] [min]
1 | CCOC(=O)c1cccc(N)c1 [Compound 6, tricaine methane sulfonate] | lowers light sensitivity of dark adapted rats in a dose dependent manner | decreases after 3 hours | –
2 | CC(C)(O)c1nc2ccc(Cl)cc2cc1N [Compound 9] | – | – | 320
